*1 amine or outer side, *2 acyl side, *3 side chain or, on linkers, in order; H or OH if unused. Where a SMILES comes first, the peptide text is derived from it. Side-chain parts run from the residue outwards. The star is where a group is joined. C18 diacid = O=C(O)CCCCCCCCCCCCCCCCC(=O)*; γGlu = O=C(O)[C@H](CCC(=O)[*:2])N[*:1]; Isovaleryl = CC(C)CC(=O)*; Ahx = NCCCCCC(=O)O
Experiments:
[1] = target: T1, Human Neuropeptide Y2 Receptor (Homo sapiens, UniProt P49146); test: Radioligand binding competition assay (RLB); conditions: Table 3, 125I-PYY(1-36) competition; read-out: Ki
T1 construct: purchased CHEMICON HTS066M
T1 sequence (P49146 1-381): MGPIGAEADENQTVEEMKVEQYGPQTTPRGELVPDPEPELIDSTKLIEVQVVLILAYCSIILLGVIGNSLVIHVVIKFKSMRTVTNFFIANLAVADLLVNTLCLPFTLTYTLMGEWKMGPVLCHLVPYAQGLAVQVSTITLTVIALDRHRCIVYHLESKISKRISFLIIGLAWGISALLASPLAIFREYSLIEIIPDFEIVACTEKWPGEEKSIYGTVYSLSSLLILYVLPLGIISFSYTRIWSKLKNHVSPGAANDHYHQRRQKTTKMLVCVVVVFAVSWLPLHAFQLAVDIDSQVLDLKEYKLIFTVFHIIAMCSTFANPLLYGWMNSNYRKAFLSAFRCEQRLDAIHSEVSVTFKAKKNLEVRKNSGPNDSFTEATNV
Outline: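 Competition binding used membranes expressing the receptor (0.5 μg protein/well) in 50 mM HEPES, 5 mM MgCl2, 1 mM CaCl2, pH 7.4 with 0.2% ovalbumin, incubated 2 h at room temperature with shaking. Bound radioligand was collected by filtration onto PEI-soaked GF/C filters and counted; IC50 from nonlinear sigmoidal fits.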

Solubility determination = conditions: for Sol6: pH 6; for Sol7: pH 7
Outline: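 Sample: TFA-salt peptide at 10 mg/ml target in 0.1 M Na diphosphate, pH 6.4 or 7.0, shaken 2 h RT, filtered, diluted to 1 mg/ml.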

SMILES | Ki [1] | Sol6 (Solubility determination) | Sol7 (Solubility determination)
CC(C)CC(=O)N[C@@H](C)C(=O)N1CCC[C@H]1C(=O)N[C@@H](CCC(=O)O)C(=O)N[C@@H](CCCCNC(=O)CCCCCNC(=O)CC[C@H](NC(=O)CCCCCCCCCCCCCCCCC(=O)O)C(=O)O)C(=O)N1CCC[C@H]1C(=O)N[C@@H](CCC(=O)O)C(=O)N[C@@H](CCC(=O)O)C(=O)N[C@@H](CC(=O)O)C(=O)N[C@@H](C)C(=O)N[C@H](C(=O)N1CCC[C@H]1C(=O)N[C@@H](CCC(=O)O)C(=O)N[C@@H](CCC(=O)O)C(=O)N[C@@H](CC(C)C)C(=O)N[C@@H](CCC(N)=O)C(=O)N[C@@H](CCC(=O)O)C(=O)N[C@@H](Cc1ccc(O)cc1)C(=O)N[C@@H](Cc1ccc(O)cc1)C(=O)N[C@H](C(=O)N[C@@H](CO)C(=O)N[C@@H](CC(C)C)C(=O)N[C@@H](CCCNC(=N)N)C(=O)N[C@@H](Cc1c[nH]cn1)C(=O)N[C@@H](Cc1ccc(O)cc1)C(=O)N[C@@H](Cc1ccc(O)cc1)C(=O)N[C@@H](CC(N)=O)C(=O)N[C@@H](Cc1c[nH]c2ccccc12)C(=O)N[C@@H](CC(C)C)C(=O)N[C@H](C(=O)N[C@@H](CCCNC(=N)N)C(=O)N[C@@H](CCC(N)=O)C(=O)N[C@@H](CCCNC(=N)N)C(=O)N[C@@H](Cc1ccc(O)cc1)C(N)=O)[C@@H](C)O)C(C)C)[C@@H](C)O [Compound 38, N{alpha-4}-(3-methylbutanoyl)-N{epsilon-7}-(6-[(4S)-4-carboxy-4-(17-carboxyheptadecanamido)butanamido]hexanoyl)[4A,7K,9E,13T,18Q,19E,22V,28Y,30W,31L]-hPYY(4-36)] | 12.4 nM | 10.0 mg/mL | 10.0 mg/mL
CC(C)CC(=O)N[C@@H](C)C(=O)N1CCC[C@H]1C(=O)N[C@@H](CCC(=O)O)C(=O)N[C@@H](CCCCNC(=O)CCCCCNC(=O)CC[C@H](NC(=O)CCCCCCCCCCCCCCCCC(=O)O)C(=O)O)C(=O)N1CCC[C@H]1C(=O)N[C@@H](CCC(=O)O)C(=O)N[C@@H](CCC(=O)O)C(=O)N[C@@H](CC(=O)O)C(=O)N[C@@H](C)C(=O)N[C@@H](CO)C(=O)N1CCC[C@H]1C(=O)N[C@@H](CCC(=O)O)C(=O)N[C@@H](CCC(=O)O)C(=O)N[C@@H](CC(C)C)C(=O)N[C@@H](CCC(N)=O)C(=O)N[C@@H](CCCNC(=N)N)C(=O)N[C@@H](Cc1ccc(O)cc1)C(=O)N[C@@H](Cc1ccc(O)cc1)C(=O)N[C@H](C(=O)N[C@@H](CO)C(=O)N[C@@H](CC(C)C)C(=O)N[C@@H](CCCNC(=N)N)C(=O)N[C@@H](Cc1c[nH]cn1)C(=O)N[C@@H](Cc1ccc(O)cc1)C(=O)N[C@@H](Cc1ccc(O)cc1)C(=O)N[C@@H](CCC(N)=O)C(=O)N[C@@H](Cc1c[nH]c2ccccc12)C(=O)N[C@@H](CC(C)C)C(=O)N[C@H](C(=O)N[C@@H](CCCNC(=N)N)C(=O)N[C@@H](CCC(N)=O)C(=O)N[C@@H](CCCNC(=N)N)C(=O)N[C@@H](Cc1ccc(O)cc1)C(N)=O)[C@@H](C)O)C(C)C [Compound 60, N{alpha-4}-(3-methylbutanoyl)-N{epsilon-7}-(6-[(4S)-4-carboxy-4-(17-carboxyheptadecanamido)butanamido]hexanoyl)-[4A,7K,9E,18Q,22V,28Y,29Q,30W,31L]-hPYY(4-36)] | 6.04 nM | >10.0 mg/mL | 10.0 mg/mL

Further lines, results first:

Ki [1] | Sol6 (Solubility determination) | Sol7 (Solubility determination) | SMILES
49.6 nM | >10.0 mg/mL | >10.0 mg/mL | CC(C)CC(=O)N[C@@H](C)C(=O)N1CCC[C@H]1C(=O)N[C@@H](CCC(=O)O)C(=O)N[C@@H](CCCCNC(=O)CCCCCNC(=O)CC[C@H](NC(=O)CCCCCCCCCCCCCCCCC(=O)O)C(=O)O)C(=O)N1CCC[C@H]1C(=O)N[C@@H](CCC(=O)O)C(=O)N[C@@H](CCC(=O)O)C(=O)N[C@@H](CC(=O)O)C(=O)N[C@@H](C)C(=O)N[C@H](C(=O)N1CCC[C@H]1C(=O)N[C@@H](CCC(=O)O)C(=O)N[C@@H](CCC(=O)O)C(=O)N[C@@H](CC(C)C)C(=O)N[C@@H](CCC(N)=O)C(=O)N[C@@H](CCCNC(=N)N)C(=O)N[C@@H](Cc1ccc(O)cc1)C(=O)N[C@@H](Cc1ccc(O)cc1)C(=O)N[C@H](C(=O)N[C@@H](CO)C(=O)N[C@@H](CC(C)C)C(=O)N[C@@H](CCCNC(=N)N)C(=O)N[C@@H](Cc1c[nH]cn1)C(=O)N[C@@H](Cc1ccc(O)cc1)C(=O)N[C@@H](Cc1ccc(O)cc1)C(=O)N[C@@H](CC(N)=O)C(=O)N[C@@H](Cc1c[nH]c2ccccc12)C(=O)N[C@@H](CC(C)C)C(=O)N[C@@H](CC(C)C)C(=O)N[C@@H](CCCNC(=N)N)C(=O)N[C@@H](CCC(N)=O)C(=O)N[C@@H](CCCNC(=N)N)C(=O)N[C@@H](Cc1ccc(O)cc1)C(N)=O)C(C)C)[C@@H](C)O [Compound 137, N{alpha-4}-(3-methylbutanoyl)-N{epsilon-7}-(6-[(4S)-4-carboxy-4-(17-carboxyheptadecanamido)butanamido]hexanoyl)-[4A,7K,9E,13T,18Q,22V,28Y,30W,31L,32L]-hPYY(4-36)]
2.49 nM | 0.0 mg/mL | 0.0 mg/mL | CC(C)CC(=O)N[C@@H](C)C(=O)N1CCC[C@H]1C(=O)N[C@@H](C)C(=O)N[C@@H](CCCCNC(=O)CCCCCNC(=O)CC[C@H](NC(=O)CCCCCCCCCCCCCCCCC(=O)O)C(=O)O)C(=O)N1CCC[C@H]1C(=O)N[C@@H](CCC(=O)O)C(=O)N[C@@H](C)C(=O)N[C@@H](C)C(=O)N[C@@H](C)C(=O)N[C@@H](CCC(=O)O)C(=O)N1CCC[C@H]1C(=O)N[C@@H](CCC(=O)O)C(=O)N[C@@H](CCC(=O)O)C(=O)N[C@@H](CC(C)C)C(=O)N[C@@H](CCC(N)=O)C(=O)N[C@@H](CCCNC(=N)N)C(=O)N[C@@H](Cc1ccc(O)cc1)C(=O)N[C@@H](Cc1ccc(O)cc1)C(=O)N[C@H](C(=O)N[C@@H](CO)C(=O)N[C@@H](CC(C)C)C(=O)N[C@@H](CCCNC(=N)N)C(=O)N[C@@H](Cc1c[nH]cn1)C(=O)N[C@@H](Cc1ccc(O)cc1)C(=O)N[C@@H](Cc1ccc(O)cc1)C(=O)N[C@@H](CC(N)=O)C(=O)N[C@@H](Cc1c[nH]c2ccccc12)C(=O)N[C@@H](CC(C)C)C(=O)N[C@H](C(=O)N[C@@H](CCCNC(=N)N)C(=O)N[C@@H](CCC(N)=O)C(=O)N[C@@H](CCCNC(=N)N)C(=O)N[C@@H](Cc1ccc(O)cc1)C(N)=O)[C@@H](C)O)C(C)C [Compound 43, N{alpha-4}-(3-methylbutanoyl)-N{epsilon-7}-(6-[(4S)-4-carboxy-4-(17-carboxyheptadecanamido)butanamido]hexanoyl)[4A,6A,7K,9E,10A,11A,13E,18Q,22V,28Y,30W,31L]-hPYY(4-36)] (Isovaleryl-APAK([Ahx-γGlu-C18 diacid])PEAAAEPEELQRYYVSLRHYYNWLTRQRY-NH2)
1.25 nM | 0.0 mg/mL | 0.4 mg/mL | CC[C@H](C)[C@H](NC(=O)[C@H](CCC(=O)O)NC(=O)[C@H](CCC(=O)O)NC(=O)[C@@H]1CCCN1C(=O)[C@@H](NC(=O)[C@H](C)NC(=O)[C@H](C)NC(=O)[C@H](CCC(=O)O)NC(=O)[C@H](CCC(=O)O)NC(=O)[C@@H]1CCCN1C(=O)[C@H](CCCCNC(=O)CCCCCNC(=O)CC[C@H](NC(=O)CCCCCCCCCCCCCCCCC(=O)O)C(=O)O)NC(=O)[C@H](C)NC(=O)[C@@H]1CCCN1C(=O)[C@H](C)NC(=O)CC(C)C)[C@@H](C)O)C(=O)N[C@@H](CCC(N)=O)C(=O)N[C@@H](CCCNC(=N)N)C(=O)N[C@@H](Cc1ccc(O)cc1)C(=O)N[C@@H](Cc1ccc(O)cc1)C(=O)N[C@H](C(=O)N[C@@H](CO)C(=O)N[C@@H](CC(C)C)C(=O)N[C@@H](CCCNC(=N)N)C(=O)N[C@@H](Cc1c[nH]cn1)C(=O)N[C@@H](Cc1ccc(O)cc1)C(=O)N[C@@H](Cc1ccc(O)cc1)C(=O)N[C@@H](CC(N)=O)C(=O)N[C@@H](Cc1c[nH]c2ccccc12)C(=O)N[C@@H](CC(C)C)C(=O)N[C@H](C(=O)N[C@@H](CCCNC(=N)N)C(=O)N[C@@H](CCC(N)=O)C(=O)N[C@@H](CCCNC(=N)N)C(=O)N[C@@H](Cc1ccc(O)cc1)C(N)=O)[C@@H](C)O)C(C)C [Compound 36, N{alpha-4}-(3-methylbutanoyl)-N{epsilon-7}-(6-[(4S)-4-carboxy-4-(17-carboxyheptadecanamido)butanamido]hexanoyl)[4A,6A,7K,9E,11A,13T,17I,18Q,22V,28Y,30W,31L]-hPYY(4-36)]

Source: patent US12391737B2, “Soluble NPY2 receptor agonists” (Boehringer Ingelheim International GmbH, priority 2020, dated 2025)
